ChEMBL document CHEMBL1201862, “PubChem BioAssay data set” (2004)
Activity calls are given as the source filed them.

Legend:
Vero = test: cells; assay type: functional; settings: Chlorocebus sabaeus
[1] = A Cell Based Secondary Assay To Explore Cytotoxicity of Compounds that Sensitize Mycobacterium Tuberculosis to Beta-Lactam Antibiotics.; assay type: functional
HEK293 [2] = test: cells; assay type: functional, cell-based; settings: Homo sapiens
HEK293 [3] = test: inhibition of NOD1-driven NF-kB reporter – cell-based, luminescence, uHTS, primary screen (AID 1578); assay type: functional; settings: Homo sapiens
[4] = biological target: Nucleotide-binding oligomerization domain-containing protein 2 (Homo sapiens, UniProt Q9HC29); test: inhibition of NOD2-driven NF-kB reporter – cell-based, luminescence, uHTS, HEK293 (AID 1566); assay type: functional
HEK293 [5] = test: NOD2 signaling inhibitors in MDP-stimulated cells, cell-based, uHTS, luminescence (AID 2001); assay type: functional; settings: Homo sapiens
HEK293 [6] = test: cells; assay type: functional, cell-based; settings: Homo sapiens; remark: listed apart in the source
HEK293 [7] = test: cells; assay type: functional, cell-based; settings: Homo sapiens; remark: listed apart in the source
[8] = non-specific 3'UTR reporter inhibition in Clone20-Shn3RL – cell-based, Renilla luciferase, cherry-picked, counter-screen for Shn3 inhibitor project, dose response (AID 624133); assay type: functional
[9] = reduction of Shn3 3'UTR-driven luciferase in osteoblasts – cell-based, Clone20 osteoblasts, firefly luciferase, cherry-picked, dose response (AID 624132); assay type: functional;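 also: firefly luciferase luminescence from reporter carrying the Shn3 3'UTR in osteoblasts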
[10] = biological target: Induced myeloid leukemia cell differentiation protein Mcl-1 (Homo sapiens, UniProt Q07820); assay type: functional
[11] = microbe, parasite or virus in culture; assay type: functional; settings: Mycobacterium tuberculosis
Prothrombin = Prothrombin (Homo sapiens, UniProt P00734); test: Thrombin 1536 HTS Dose Response Confirmation. [Related pubchem assays: 1046 (Thrombin 1536 HTS; hits were confirmed in this assay)]; assay type: functional
[12] = viability of PTEN-deleted HCT116 cells – cell-based, HCT116 PTEN knockout, dose response (AID 1047); assay type: functional;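 also: HCT116 colon tumor cells with PTEN knocked out; cells exposed to compound for 60 hours before readout; potency for loss of cell viability measured by luminescence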
[13] = viability of HCT116 lacking mutant beta-catenin – cell-based, human colon tumor, dose response (AID 1045); assay type: functional;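 also: HCT116 colon tumor cells with beta catenin knocked out; cells exposed to compound for 60 hours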
[14] = Luminescence-based cell-based high throughput dose response assay to identify activators of the DAF-12 from the parasite S. stercoralis (ssDAF-12).; assay type: functional
[15] = general cell-killing toxicity readout – plate reader, dry powder samples, cytotoxicity control for PAX8 inhibitor project, dose response (AID 743021); assay type: functional, cell-based
Paired box protein Pax-8 = Paired box protein Pax-8 (Homo sapiens, UniProt Q06710); test: PAX8 transcriptional activity inhibition in RMG-I – RMG-I cells, luciferase, cherry-pick, dose response (AID 687027); assay type: functional, cell-based;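 also: luciferase reporter driven by Pax8 target thyroperoxidase promoter measured by SteadyGlo luminescence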
Cytochrome P450 2C19 = Cytochrome P450 2C19 (Homo sapiens, UniProt P33261); test: Cytochrome panel assay with activity outcomes. Panel member name: p450-cyp2c19 Compounds with AC50 equal or less than 10 uM are considered active; assay type: functional; settings: read-out: AC50
[16] = Trypanosoma cruzi growth suppression in host cells – NIH3T3 host cells, beta-gal luminescence, confirmation (AID 2044); assay type: functional, cell-based;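 also: intracellular parasites grown in NIH/3T3 mouse fibroblasts as host cells; luminescent beta-galactosidase reporter signal from transgenic T. cruzi replicating inside host cells; inhibitors lower the luminescence signal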
[17] = NIH3T3 cell viability loss – ATP luminescence, mouse fibroblasts, counter-screen, dose response (AID 2010); assay type: functional, cell-based;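 also: cells exposed to compound for about 90 hours before reading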
[18] = NIH-3T3 fibroblast cytotoxicity, dose response, cytotoxicity control, cell-based, fluorescence, Alamar Blue, secondary assay (AID 2327); assay type: functional;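 also: NIH-3T3 mouse fibroblasts cultured with fluconazole at 8 µg/mL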
[19] = fluconazole-exposed Candida albicans growth modulators – fluorescence, retest, confirmation (AID 2467); assay type: functional, cell-based
[20] = biological target: Glucose-6-phosphate 1-dehydrogenase (Homo sapiens, UniProt P11413); test: inhibition of Homo sapiens G6PD, dose series – biochemical, fluorescence, selectivity assay for P. falciparum G6PD inhibitor project, dose response (AID 504792); assay type: functional
[21] = intracellular Trypanosoma cruzi inhibitors in host cells – cell-based, plate reader, cherry-pick samples, set 3, dose response (AID 651818); assay type: functional;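 also: compounds incubated with infected cells for about four days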
[22] = general mammalian cell viability loss – inhibitor set, cherry-pick, set 2, cytotoxicity control for miR-122 modulator project, dose response (AID 720697); assay type: functional, cell-based
[23] = activation of miR-122 Renilla sensor silencing – cell-based, Huh7 psiCHECK-miR122, Renilla luciferase, cherry-picked, dose response (AID 651956); assay type: functional;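 also: huh7 hepatoma cells stably carrying a psiCHECK-2 miR-122 sensor plasmid; renilla luciferase signal reporting endogenous miR-122 activity after 48 h compound exposure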
[24] = blockers of HIV-1 ZM109 envelope-driven cell-cell fusion – HeLa effector, CEM target cells, luciferase, cherry-pick, dose response (AID 652058); assay type: functional, cell-based;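 also: luciferase signal from HIV-1 Env mediated cell-cell fusion of effector and target cells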
[25] = blockers of HIV-1 envelope-mediated cell-cell fusion – cherry-pick, dose response (AID 652057); assay type: functional, cell-based
[26] = HIV-1 AD8 envelope cell-cell fusion blockers – cherry-pick, dose response (AID 652062); assay type: functional, cell-based;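 also: luciferase signal from cell-cell fusion driven by HIV-1 clade B AD8 Env; potency is for inhibitors of fusion seen as a drop in luminescence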
HEK293 [27] = test: EBV LMP1 TES2 canonical NF-kB signalling blockers – cell-based, HEK293, luciferase, cherry-pick, dose response (AID 588343); assay type: functional; settings: Homo sapiens
[28] = HEK-293T viability loss after treatment – luminescence, T-cell screen hits, cytotoxicity control for TCR NF-kB inhibitor project, dose response (AID 489026); assay type: functional, cell-based;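 also: cells exposed to compound about 14 hours before the viability readout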
[29] = biological target: T1, Microphthalmia-associated transcription factor (Homo sapiens, UniProt O75030); test: reducers of TRPM1 reporter luminescence, concentration series – cell-based, SK-MEL-5, cherry-picked, set 3, MITF inhibitor project, dose response (AID 493073); assay type: functional;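 also: SK-MEL-5 melanoma cells with luciferase driven by the MITF target TRPM1 promoter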
T1 sequence (O75030 whole entry): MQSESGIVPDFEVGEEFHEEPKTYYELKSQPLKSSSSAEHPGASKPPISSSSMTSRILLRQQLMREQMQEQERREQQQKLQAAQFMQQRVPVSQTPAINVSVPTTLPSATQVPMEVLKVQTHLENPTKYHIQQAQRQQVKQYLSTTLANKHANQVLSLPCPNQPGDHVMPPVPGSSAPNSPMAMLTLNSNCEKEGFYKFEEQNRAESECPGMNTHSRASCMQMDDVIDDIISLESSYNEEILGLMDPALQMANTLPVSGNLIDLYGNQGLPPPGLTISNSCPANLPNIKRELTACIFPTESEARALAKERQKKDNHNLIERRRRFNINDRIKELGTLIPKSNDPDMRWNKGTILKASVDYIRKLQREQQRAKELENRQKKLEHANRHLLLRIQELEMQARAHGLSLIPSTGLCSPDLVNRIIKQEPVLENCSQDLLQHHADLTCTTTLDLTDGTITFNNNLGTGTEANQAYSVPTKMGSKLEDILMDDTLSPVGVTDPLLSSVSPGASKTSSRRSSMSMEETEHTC

cells [30] = assay type: functional, cell-based
cells [31] = assay type: functional, cell-based; remark: listed apart in the source
[32] = HEK-293T cell viability reduction – luminescence, B-cell screen hits, cytotoxicity control for BCR NF-kB inhibitor project, dose response (AID 489021); assay type: functional, cell-based;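 also: HEK-293T cells carrying an NF-kB luciferase reporter; cells exposed to compound for about 14 hours before viability readout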
Bcl-2-related protein A1 = biological target: T2, Bcl-2-related protein A1 (Mus musculus, UniProt Q07440); assay type: functional;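 also: confirmatory dose–response counterscreen on Bfl-1, used to check hits from a UBC13 polyubiquitin inhibitor campaign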
T2 sequence (Q07440 whole entry): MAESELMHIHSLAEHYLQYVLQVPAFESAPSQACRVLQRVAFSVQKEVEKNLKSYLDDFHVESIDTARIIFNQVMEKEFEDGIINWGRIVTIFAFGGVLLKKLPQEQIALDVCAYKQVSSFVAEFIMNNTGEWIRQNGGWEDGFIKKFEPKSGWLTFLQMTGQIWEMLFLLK

Nucleotide-binding oligomerization domain-containing protein 2, sequence (Q9HC29 whole entry, the tested form may be a part): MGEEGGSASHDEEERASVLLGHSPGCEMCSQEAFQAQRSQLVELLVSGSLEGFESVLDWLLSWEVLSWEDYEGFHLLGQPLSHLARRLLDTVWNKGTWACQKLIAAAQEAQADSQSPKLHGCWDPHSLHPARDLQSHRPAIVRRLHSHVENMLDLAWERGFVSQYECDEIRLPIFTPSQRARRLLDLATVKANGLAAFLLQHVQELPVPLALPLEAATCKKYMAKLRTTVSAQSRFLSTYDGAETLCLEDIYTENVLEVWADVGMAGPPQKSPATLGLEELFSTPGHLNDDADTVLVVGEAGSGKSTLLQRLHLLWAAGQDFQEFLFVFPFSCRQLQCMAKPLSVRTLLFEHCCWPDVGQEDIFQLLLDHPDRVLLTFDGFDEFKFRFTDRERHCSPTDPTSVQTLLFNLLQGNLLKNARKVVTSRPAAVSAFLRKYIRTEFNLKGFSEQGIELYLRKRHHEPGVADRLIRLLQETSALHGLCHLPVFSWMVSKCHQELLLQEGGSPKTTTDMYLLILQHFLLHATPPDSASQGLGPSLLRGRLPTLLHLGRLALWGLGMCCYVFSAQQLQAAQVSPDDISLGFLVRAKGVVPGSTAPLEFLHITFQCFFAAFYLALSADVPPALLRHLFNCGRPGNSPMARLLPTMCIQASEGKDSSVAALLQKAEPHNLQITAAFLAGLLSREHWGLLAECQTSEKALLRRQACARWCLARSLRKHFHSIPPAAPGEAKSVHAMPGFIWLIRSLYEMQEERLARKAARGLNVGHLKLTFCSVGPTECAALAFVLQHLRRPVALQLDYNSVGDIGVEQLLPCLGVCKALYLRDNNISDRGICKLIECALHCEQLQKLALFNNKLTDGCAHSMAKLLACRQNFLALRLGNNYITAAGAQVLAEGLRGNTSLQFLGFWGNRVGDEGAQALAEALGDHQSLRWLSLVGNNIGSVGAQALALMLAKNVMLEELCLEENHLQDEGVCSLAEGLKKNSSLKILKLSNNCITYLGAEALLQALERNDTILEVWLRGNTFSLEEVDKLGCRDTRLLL
Induced myeloid leukemia cell differentiation protein Mcl-1, sequence (Q07820 whole entry): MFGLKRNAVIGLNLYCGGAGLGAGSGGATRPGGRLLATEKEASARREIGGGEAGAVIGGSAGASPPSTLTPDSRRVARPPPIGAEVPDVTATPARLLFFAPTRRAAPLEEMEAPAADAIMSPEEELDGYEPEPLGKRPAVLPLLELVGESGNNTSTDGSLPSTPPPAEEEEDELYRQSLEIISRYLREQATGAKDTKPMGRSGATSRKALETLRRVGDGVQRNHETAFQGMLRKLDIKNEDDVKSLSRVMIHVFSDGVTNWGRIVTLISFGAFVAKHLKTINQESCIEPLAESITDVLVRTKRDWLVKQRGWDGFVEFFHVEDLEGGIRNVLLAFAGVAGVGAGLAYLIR
Cytochrome P450 2C19, sequence (P33261 whole entry): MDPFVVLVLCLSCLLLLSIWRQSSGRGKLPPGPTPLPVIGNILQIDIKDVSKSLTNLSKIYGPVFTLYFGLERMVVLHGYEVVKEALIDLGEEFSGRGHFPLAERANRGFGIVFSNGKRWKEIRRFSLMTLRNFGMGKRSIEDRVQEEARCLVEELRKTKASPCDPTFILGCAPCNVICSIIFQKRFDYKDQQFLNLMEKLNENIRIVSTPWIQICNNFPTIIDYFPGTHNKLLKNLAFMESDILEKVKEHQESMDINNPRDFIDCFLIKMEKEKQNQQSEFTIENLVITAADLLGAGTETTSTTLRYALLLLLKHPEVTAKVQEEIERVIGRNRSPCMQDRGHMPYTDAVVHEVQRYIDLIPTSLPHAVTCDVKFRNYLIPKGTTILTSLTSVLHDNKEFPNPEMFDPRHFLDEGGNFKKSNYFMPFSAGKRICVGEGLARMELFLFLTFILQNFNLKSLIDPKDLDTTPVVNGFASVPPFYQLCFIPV
Glucose-6-phosphate 1-dehydrogenase, sequence (P11413 whole entry): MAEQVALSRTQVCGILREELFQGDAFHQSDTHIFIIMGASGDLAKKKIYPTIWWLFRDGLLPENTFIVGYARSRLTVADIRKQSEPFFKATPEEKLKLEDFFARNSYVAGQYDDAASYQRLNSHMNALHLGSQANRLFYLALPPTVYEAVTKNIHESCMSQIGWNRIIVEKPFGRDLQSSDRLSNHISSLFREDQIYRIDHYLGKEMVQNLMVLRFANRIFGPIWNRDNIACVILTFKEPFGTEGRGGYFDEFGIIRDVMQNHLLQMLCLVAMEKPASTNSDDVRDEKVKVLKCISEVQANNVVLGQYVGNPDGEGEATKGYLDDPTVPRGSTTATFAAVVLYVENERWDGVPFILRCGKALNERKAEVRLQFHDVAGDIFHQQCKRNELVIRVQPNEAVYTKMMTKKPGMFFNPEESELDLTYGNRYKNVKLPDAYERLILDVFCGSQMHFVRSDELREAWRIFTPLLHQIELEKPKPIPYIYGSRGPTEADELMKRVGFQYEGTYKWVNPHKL
Paired box protein Pax-8, sequence (Q06710 whole entry): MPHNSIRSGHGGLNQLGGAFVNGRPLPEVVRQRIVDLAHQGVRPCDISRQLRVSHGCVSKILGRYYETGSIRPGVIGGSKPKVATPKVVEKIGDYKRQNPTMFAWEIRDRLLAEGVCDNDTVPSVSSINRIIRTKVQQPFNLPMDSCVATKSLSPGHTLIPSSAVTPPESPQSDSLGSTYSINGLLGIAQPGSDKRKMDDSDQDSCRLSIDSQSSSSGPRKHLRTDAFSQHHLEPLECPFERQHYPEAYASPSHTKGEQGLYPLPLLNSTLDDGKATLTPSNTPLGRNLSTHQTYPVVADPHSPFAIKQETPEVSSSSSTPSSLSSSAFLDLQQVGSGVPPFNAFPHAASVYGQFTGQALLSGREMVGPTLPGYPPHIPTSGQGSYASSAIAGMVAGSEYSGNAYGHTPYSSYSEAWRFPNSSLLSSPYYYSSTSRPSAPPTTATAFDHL

SMILES: COc1cccc(-n2c(SCC(=O)c3c[nH]c4ccccc34)nc3ccccc3c2=O)c1
- CC50 (Vero): > 25 µM (active)

SMILES: O=C(CSc1nc2cc(Cl)c[nH]c-2n1)Nc1cccc(F)c1
- CC50 [1]: > 40 µM (active)

SMILES: COC(=O)c1sccc1NC(=O)CSc1ccccc1NS(=O)(=O)c1cc(Cl)ccc1Cl
- IC50 (HEK293 [2]): > 20 µM (inactive)
- EC50 (HEK293 [3]): 6.42 µM (active)
- EC50 [4]: 6.35 µM (active)
- IC50 (HEK293 [5]): 5.68 µM (active)
- IC50 (HEK293 [6]): 8.22 µM (active)
- IC50 (HEK293 [7]): > 20 µM (inactive)

SMILES: O=C(c1ccc(S(=O)(=O)c2ccc(F)cc2)c([N+](=O)[O-])c1)N1CCCCCC1
- AC50 [8]: 9.68 µM (active)
- IC50 (HEK293 [2]): > 20 µM (inactive)
- EC50 (HEK293 [3]): 4.38 µM (active)
- AC50 [9]: 2.38 µM (active)
- EC50 [4]: 14.8 µM (active)
- IC50 (HEK293 [5]): 5.8 µM (active)
- IC50 (HEK293 [6]): 5.7 µM (active)
- IC50 (HEK293 [7]): > 20 µM (inactive)

SMILES: CC(C)(C)c1ccc(CN2N=Nc3ccccc3S2(=O)=O)cc1
- IC50 [10]: 24.1 µM (active)

SMILES: Nc1c2c(nc3ccn(Cc4ccccc4)c(=O)c13)CCC2
- CC50 [11]: > 40 µM (active)

SMILES: Cc1cc(S)nc(-c2ccccn2)n1
- CC50 [1]: 31.8 µM (active)

SMILES: COC/C=C/C1=CC2=CC(=O)C(C)(OC(=O)c3ccco3)C(=O)C2=CO1 (stereo unspecified)
- IC50 [10]: 3.7 µM (active)

SMILES: CC1CCN(CC(=O)Nc2ccccc2C#N)CC1
- IC50 (Prothrombin): > 50 µM (not active)

SMILES: O=C(NCCN1CCN(Cc2ccccc2)CC1)c1cc2c(O)nc3ccccc3c2s1
- EC50 [12]: 13 µM (active)
- EC50 [13]: 14.3 µM (active)

SMILES: CC(=O)Nc1nc(-c2ccc(Cl)cc2)nc(C)c1C(C)=O
- IC50 [14]: > 67.6 µM (inactive)

SMILES: CSc1nc(-c2ccccc2)nc(N2CCOCC2)c1C(C)=O
- IC50 (Prothrombin): > 50 µM (not active)

SMILES: Cc1ccc2c(CC(=O)OCC(=O)Nc3ccc(Cl)cn3)coc2c1
- AC50 [15]: 52.7 µM (active)
- AC50 (Paired box protein Pax-8): 14.2 µM (active)

SMILES: CCC(C)Oc1ccccc1C1CC(=O)NC2=C1C(=O)CCC2 (stereo unspecified)
- EC50 [12]: 12.5 µM (active)
- EC50 [13]: 12.7 µM (active)

SMILES: O=c1oc(-c2cccnc2)nc2ccccc12
- IC50 (Prothrombin): 0.966 µM (active)

SMILES: CC(CC(=O)Nc1ccc(Cl)c([N+](=O)[O-])c1)c1ccccc1 (stereo unspecified)
- CC50 [11]: 30.7 µM (active)
- AC50 (Cytochrome P450 2C19): 2.51 µM (inconclusive)

SMILES: Oc1ccc(CN2CCCCC2)c2cccnc12
- EC50 [12]: 3.45 µM (active)
- EC50 [16]: 1.78 µM (active)
- EC50 [17]: 11.4 µM (active)
- EC50 [18]: > 150 µM (inactive)
- EC50 [13]: 3 µM (active)
- EC50 [19]: > 38 µM (not active)

SMILES: O=C(CSc1nc2ccccc2[nH]1)NC1CCCc2ccccc21 (stereo unspecified)
- IC50 [20]: > 80 µM (inactive)

SMILES: COc1cc(S(=O)(=O)N2CCOCC2)ccc1NC(=O)COC(=O)COc1ccccc1
- IC50 (Prothrombin): 3.63 µM (active)

SMILES: Cc1ccc(CNc2nc3ccccc3n2C)cc1
- IC50 [14]: > 67.5 µM (inactive)

SMILES: Cc1ccc(CSc2nccc(-c3c(C)nc4ccccn34)n2)cc1
- CC50 [1]: 24.7 µM (active)

SMILES: CC1(C)CC(=O)C2=C(C1)N1C(=C(C#N)C2c2ccccc2Cl)N=C(N)c2ccccc21 (stereo unspecified)
- EC50 [12]: 20.4 µM (active)
- EC50 [13]: 22.7 µM (active)

SMILES: Cc1cc(F)ccc1N1CCC(N2CCN(CCC(C)C)C(CCO)C2)CC1 (stereo unspecified)
- IC50 (Prothrombin): > 50 µM (not active)

SMILES: COc1ccc(/C=C2\SC(=S)N(CCC(=O)N3CCCCC3)C2=O)cc1
- CC50 (Vero): > 25 µM (active)

SMILES: C[C@H](CO)N1C[C@H](C)[C@H](CN(C)C)Oc2c(NC(=O)Nc3ccc(C(F)(F)F)cc3)cccc2C1=O
- AC50 [21]: 3.27 µM (active)

SMILES: C[C@@H]1CCCCO[C@@H](CN(C)C(=O)C2CCCCC2)[C@@H](C)CN([C@H](C)CO)C(=O)c2cc(NC(=O)Nc3ccc(C(F)(F)F)cc3)ccc2O1
- AC50 [21]: 1.91 µM (active)

SMILES: C[C@H]1CN([C@@H](C)CO)C(=O)c2cc(NS(=O)(=O)c3ccc(Cl)cc3)ccc2O[C@H]1CN(C)S(=O)(=O)c1ccc(Cl)cc1
- AC50 [21]: 4.63 µM (active)

SMILES: C[C@@H]1CN([C@@H](C)CO)C(=O)Cc2cc(NS(=O)(=O)c3cccs3)ccc2O[C@@H]1CN(C)Cc1ccc(C(=O)Nc2ccccc2N)cc1
- AC50 [21]: 2.33 µM (active)

SMILES: C/C=C/c1ccc2c(c1)O[C@H](CN(C)C(=O)c1cnccn1)[C@H](C)CN([C@@H](C)CO)S2(=O)=O
- AC50 [22]: 10.3 µM (active)
- AC50 [23]: 26.6 µM (active)

SMILES: CC(C)NC(=O)Nc1ccc2c(c1)CC(=O)N([C@H](C)CO)C[C@H](C)[C@H](CN(C)S(=O)(=O)c1cccs1)O2
- AC50 [24]: 4.72 µM (active)
- AC50 [25]: 7.82 µM (active)
- AC50 [26]: 12.8 µM (active)

SMILES: COc1cccc(/C=N/Nc2ncnc3c2ncn3Cc2ccccc2)c1O
- AC50 (HEK293 [27]): 4.68 µM (active)
- IC50 [28]: > 80 µM (inactive)
- AC50 [29]: 4.6 µM (active)
- EC50 (cells [30]): > 350 µM (not active)
- EC50 (cells [31]): 6.75 µM (active)

SMILES: COC(=O)C[C@@H]1C[C@H]2c3cc(NS(=O)(=O)c4cccc(OC)c4)ccc3O[C@H]2[C@@H](CO)O1
- AC50 [24]: 3.74 µM (active)
- AC50 [26]: 66.1 µM (active)

SMILES: COc1cc2c3c(c1)c(/N=N/C(=N)S)c(O)n3C(C)(C)C=C2C
- IC50 [32]: > 80 µM (inactive)
- IC50 (Bcl-2-related protein A1): > 20 µM (inactive)

SMILES: O=C(O)c1ccc(N/N=C/C=C/c2ccccc2[N+](=O)[O-])cc1
- IC50 [14]: > 67.6 µM (inactive)

SMILES: O=C(N/N=C/c1ccc(-c2cccc(C(F)(F)F)c2)o1)c1ccccc1O
- CC50 [1]: 11.5 µM (active)
